{
  "source": "patent US20140080885A1",
  "about": "“METHODS OF TREATING TRAUMATIC BRAIN INJURY” (University of South Florida (A Florida Non-Profit …, priority 2012, published 2014)",
  "tested_on": "CA3 layer of the hippocampus in rats 24 hrs following TBI",
  "assay": "Hippocampal damage after TBI (lateral fluid percussion injury), Fluoro-Jade staining of degenerating neurons",
  "type": "in vivo, Male Sprague-Dawley rats",
  "settings": "vs vehicle (2.5% DMSO in saline), p<0.0293 ANOVA with Dunnett's post-hoc test",
  "procedure": "FIG. 1 illustrates that Carvedilol treatment reduces hippocampal damage following TBI. Representative images of the CA3 layer of the hippocampus in rats 24 hrs following TBI, vehicle treated (A) and carvedilol treated (B) at 1 and 12 hrs following the insult. […] Images were taken at 4× magnification. Dosing was subcutaneous and the vehicle is 2.5% DMSO in saline.\nAll animal procedures were conducted in accordance with the NIH Guide for the Care and Use of Laboratory Animals following a protocol approved by the Institutional Animal Care and Use Committee at the University of South Florida. Male Sprague-Dawley rats (Harlan, Indianapolis, Ind.) weighing 250 to 300 g were housed in a climate-controlled room with water and laboratory chow available ad libitum. A total of 33 animals were used in this study.\nInduction of Lateral Fluid Percussion Injury (LFPI) Animals were anesthetized using a mixture of ketamine (90 mg/kg)/xylazine (10 mg/kg) (IP). […] Impact pressures were measured using a transducer attached to the point of impact on the fluid percussive device. […]\nAll quantitation was performed using the NIH Image J software. […] Photomicrographs captured at 200× magnification with an Olympus DP70 camera were used for quantification. […] The channels of the RGB images were split and the green channel was used for quantitation of the FJ staining images. […]",
  "data": [
    {"smiles": "COc1ccccc1OCCNCC(O)COc1cccc2[nH]c3ccccc3c12", "note": "(racemic) [Carvedilol, (±)-[3-(9H-carbazol-4-yloxy)-2-hydroxypropyl][2-(2-methoxyphenoxy)ethyl]amine]", "values": [
      {"measurement": "hippocampal damage following TBI", "setting": "subcutaneous dosing at 1 and 12 hrs following the insult", "result": "significantly reduces hippocampal damage"},
      {"measurement": "hippocampal damage following TBI", "setting": "subcutaneous dosing at 6 and 12 (hrs) following the insult", "result": "significantly reduces hippocampal damage"}
    ]}
  ]
}
